≈ marks a conversion by molar mass, not a printed value.
Columns and labels:
[1] = cited from earlier work
test fungi = assay: Fungicidal activity of metomeclan with cyclodextrin, general statement; format: cell-based
Protocol: The following tests substantiate the surprising synergism between known fungicides and β-cyclodextrin. Stable, highly dispersed aqueous suspensions of the test materials are added to agar nutrient media in the desired concentration (0.1-200 μg/ml), whereupon the nutrient media are poured into Petri-dishes. Mycelium discs are cut out from the surfacial cultures of the test fungi and the discs are placed into the Petri-dishes containing the test materials. Incubation is carried out in thermostate whereupon the increase of the diameter of the colonies is measured and compared to that of the control. The tests are carried out in three replicates.

[2] = cited from earlier work; for volatility of the active ingredient: on forming complexes with cyclodextrin
[3] = cited from earlier work; for duration of pesticide activity: on forming complexes with cyclodextrin
three test fungi = assay: Fungistatical effect of β-cyclodextrin, morphology and surfacial cultures; format: cell-based; conditions: surfacial cultures
Protocol: (§1) Agar nutrient media comprising 0.1-0.2 -0.5-1.0-2.0-5.0-10.0-20.0-100.0- 200.0-400.0-800.0-1200.0-1500.0-2000.0-3000.0 μg β-cyclodextrin/ml, respectively, are prepared in Petri-dishes. Mycelium discs are cut out from surface cultures of three test fungi and are placed onto the agar nutrient media in the Petri-dishes. Incubation is carried out in a thermostate whereupon the increase of the diameter of the colonies is determined and compared to that of the control. The morphology of the colonies and the diffusion of the dye-substance produced by the fungi into the nutrient medium are evaluated as well.
(§2) The fungistatical effect of cyclodextrin manifests itself in the changed morphology, structure and color of the colonies and in the amount of the dyestuff penetrated into the nutrient medium. However at higher dose range the effect of cyclodextrin is already of a quantitative nature, thus the decrease of the diameter of the colonies can be measured and the amount of the biomass formed is reduced to a rate which can be evaluated (Table 1).

Rhizoctonia solani = assay: Fungistatical effect of β-cyclodextrin (agar, colony diameter); format: cell-based
Protocol: (§3) The fungistatical activity of cyclodextrins has never been disclosed in prior art.
as §1, §2

Sclerotinia sclerotiorum = assay: as above; format: cell-based
Protocol: as §3, §1, §2

Alternaria tenuis = assay: as above; format: cell-based; conditions: Alternaria alternata
Protocol: as §3, §1, §2

wheat powdery mildew = assay: In vivo test on wheat-powdery mildew (host-parasite)
Protocol: In vivo tests are carried out on wheat-powdery mildew (host-parasite) by using a combination of phenarimol [2,4'-dichloro-α--(pyrimidine-5-yl)-diphenyl-ethanol] and β-cyclodextrin. The tests are carried out in three replicates in phytotrone under usual experimental system and environmental conditions (20° C., humidity 90%, light intensity 9000 lux.) In culturing dishes (diameter 11 cm) as average 160 plants (5-6 cm stage) are treated with 8 ml of stable aqueous suspensions comprising the test material. The inhibition activity is calculated on the basis of the Hinfner-Papp formula by using the infectedness index.

[4] = Solubility of benomyl from various materials incl. Fundazol under the effect of β-cyclodextrin; format: physicochemical
Protocol: Benomyl is put on the market under the commercial name Fundazol 50 WP; benomyl active ingredient content: 50%. In Table 3 the solubility data of benomyl, a mixture of benomyl and cyclodextrin, Fundazol 50 WP, and a mixture of Fundazol 50 WP and cyclodextrin are shown. In each experiment […] of the test substance are weighed in and shaken at 25° C. Benomyl is a 100% active ingredient; the benomyl content of the benomyl/cyclodextrin mixture amounts to 17.3%; the benomyl content of Fundazol 50 WP is 50%; the benomyl content of the mixture of Fundazol 50 WP and cyclodextrin amounts to 8.65%.
2000 μg/ml of solid material are weighed in which corresponds to the following amounts of benomyl:
in the case of benomyl: 2000 μg/ml
in the case of benomyl+β-CD: 350 μg/ml++1650 μg β-CD
in the case of Fundazol 50 WP: 1000 μg/ml
in the case of Fundazol 50 WP+β-CD: 175 μg/ml++1650 μg β-CD.

[5] = Solubility of benomyl under the effect of β-cyclodextrin (shaking in water, UV); format: physicochemical; conditions: water 25° C.; for solubility thermodynamic at 10 min / solubility thermodynamic at 20 min / solubility thermodynamic at 40 min / solubility thermodynamic at 80 min / solubility thermodynamic at 2 h: water, read-out: Amount of dissolved benomyl
Protocol: (Benomyl and benomyl+β-cyclodextrin, respectively, are shaken in water at 25° C., the samples are filtered and the dissolved benomyl contents of the filtrates are determined by UV spectrophotometry).

[6] = 10 minutes, weighed in 1000 μg/ml benomyl, or 170 μg benomyl + 830 μg/ml β-CD
[7] = 10 minutes, weighed in 5000 μg/ml benomyl, or 850 μg benomyl + 4150 μg/ml β-CD
[8] = 20 minutes, weighed in 1000 μg/ml benomyl, or 170 μg benomyl + 830 μg/ml β-CD
[9] = 20 minutes, weighed in 5000 μg/ml benomyl, or 850 μg benomyl + 4150 μg/ml β-CD
[10] = 40 minutes, weighed in 1000 μg/ml benomyl, or 170 μg benomyl + 830 μg/ml β-CD
[11] = 40 minutes, weighed in 5000 μg/ml benomyl, or 850 μg benomyl + 4150 μg/ml β-CD
[12] = 80 minutes, weighed in 1000 μg/ml benomyl, or 170 μg benomyl + 830 μg/ml β-CD
[13] = 80 minutes, weighed in 5000 μg/ml benomyl, or 850 μg benomyl + 4150 μg/ml β-CD
[14] = 120 minutes, weighed in 1000 μg/ml benomyl, or 170 μg benomyl + 830 μg/ml β-CD
[15] = 120 minutes, weighed in 5000 μg/ml benomyl, or 850 μg benomyl + 4150 μg/ml β-CD

COCC1CC(=O)N(c2cc(Cl)cc(Cl)c2)C1=O (centres unmarked) [Metomeclan, 1-(3,5-dichlorophenyl)-3-methoxymethyl-pyrrolidine-2,5-dione]
solubility in water [1]: insoluble in water
activity on addition of cyclodextrin (in words) (test fungi): significantly increased

N#Cc1c(Cl)cccc1Cl [dichlobenyl, 2,6-dichloro-benzonitrile]
sublimation ([2]; uncomplexed, inhibited by forming complex with cyclodextrin): easily sublimates

COP(=O)(OC)OC=C(Cl)Cl [dichlorphos, 2,2--dichlorovinyl-dimethyl-phosphate]
volatility of the active ingredient [2]: significantly decreased
duration of pesticide activity [3]: remains sufficient for a longer period of time

COP(=S)(OC)Oc1ccc([N+](=O)[O-])cc1 [Methyl-parathion, 0,0-dimethyl-0-4-nitrophenyl-phosphorothioate]
stability against light and oxygen ([2]; cyclodextrin complexes): increase the stability against light and oxygen to a considerable extent

OC[C@H]1O[C@@H]2O[C@H]3[C@H](O)[C@@H](O)[C@@H](O[C@H]4[C@H](O)[C@@H](O)[C@@H](O[C@H]5[C@H](O)[C@@H](O)[C@@H](O[C@H]6[C@H](O)[C@@H](O)[C@@H](O[C@H]7[C@H](O)[C@@H](O)[C@@H](O[C@H]8[C@H](O)[C@@H](O)[C@@H](O[C@H]1[C@H](O)[C@H]2O)O[C@@H]8CO)O[C@@H]7CO)O[C@@H]6CO)O[C@@H]5CO)O[C@@H]4CO)O[C@@H]3CO [β-cyclodextrin]
formation of the propagative organs (three test fungi): inhibits the formation of the propagative organs
inhibition at 200 µg/mL (Rhizoctonia solani; β-cyclodextrin 200 μg/ml): 3%
inhibition at 400 µg/mL (Rhizoctonia solani; β-cyclodextrin 400 μg/ml): 6%
inhibition at 1500 µg/mL (Rhizoctonia solani; β-cyclodextrin 1500 μg/ml): 17%
inhibition at 3000 µg/mL (Rhizoctonia solani; β-cyclodextrin 3000 μg/ml): 19%
inhibition at 200 µg/mL (Sclerotinia sclerotiorum; β-cyclodextrin 200 μg/ml): 12%
inhibition at 400 µg/mL (Sclerotinia sclerotiorum; β-cyclodextrin 400 μg/ml): 12%
inhibition at 1500 µg/mL (Sclerotinia sclerotiorum; β-cyclodextrin 1500 μg/ml): 14%
inhibition at 3000 µg/mL (Sclerotinia sclerotiorum; β-cyclodextrin 3000 μg/ml): 16%
inhibition at 200 µg/mL (Alternaria tenuis; β-cyclodextrin 200 μg/ml): 7%
inhibition at 400 µg/mL (Alternaria tenuis; β-cyclodextrin 400 μg/ml): 10%
inhibition at 1500 µg/mL (Alternaria tenuis; β-cyclodextrin 1500 μg/ml): 12%
inhibition at 3000 µg/mL (Alternaria tenuis; β-cyclodextrin 3000 μg/ml): 14%

CCN(CC)C(=O)SCc1ccc(Cl)cc1 [bentiocarb, S-4-chlorobenzyl-diethylthio carbamate]
volatility of the active ingredient [2]: significantly decreased
duration of pesticide activity [3]: remains sufficient for a longer period of time

OC(c1ccc(Cl)cc1)(c1cncnc1)c1ccccc1Cl (stereo not drawn) [Phenarimol, 2,4'-dichloro-α-(pyrimidine-5-yl)--diphenyl-methanol]
Inhibition activity % (wheat powdery mildew; phenarimol concentration 0.625 μg/ml): 29.4%
Inhibition activity % (wheat powdery mildew; phenarimol concentration 1.25 μg/ml): 73.5%
Inhibition activity % (wheat powdery mildew; phenarimol concentration 2.5 μg/ml): 87.2%
Inhibition activity % (wheat powdery mildew; phenarimol concentration 5 μg/ml): 99.4%
Inhibition activity % (wheat powdery mildew; phenarimol concentration 10 μg/ml): 100.0%

O=P(O)(O)CCCl
ethylene release on contacting with plant tissue ([3]; complex with cyclodextrin): long-lasting process

CCSC(=O)N1CCCCCC1 [molinate, S-ethyl-N,N-hexamethylene-thiocarbamate]
volatility of the active ingredient [2]: significantly decreased
duration of pesticide activity [3]: remains sufficient for a longer period of time

CCCCNC(=O)n1c(NC(=O)OC)nc2ccccc21 [benomyl, 1-butylcarbamoyl-benzimidazole-2-methyl-carbamate]
decomposition when dissolved in water ([1]; to methyl-benzimidazole carbamate): rapidly decomposes
solubility in water [1]: poorly soluble in water
solubility thermodynamic at 10 min ([4]; 10 minutes, shaking in water at 25° C., read-out: Dissolved benomyl): 2 µg/mL (≈ 6.89 µM)
solubility thermodynamic at 20 min ([4]; 20 minutes, shaking in water at 25° C., read-out: Dissolved benomyl): 5 µg/mL (≈ 17.2 µM)
solubility thermodynamic at 40 min ([4]; 40 minutes, shaking in water at 25° C., read-out: Dissolved benomyl): 6 µg/mL (≈ 20.7 µM)
solubility thermodynamic at 80 min ([4]; 80 minutes, shaking in water at 25° C., read-out: Dissolved benomyl): 7 µg/mL (≈ 24.1 µM)
solubility thermodynamic at 2 h ([4]; 120 minutes, shaking in water at 25° C., read-out: Dissolved benomyl): 8 µg/mL (≈ 27.6 µM)
solubility thermodynamic at 160 min ([4]; 160 minutes, shaking in water at 25° C., read-out: Dissolved benomyl): 9 µg/mL (≈ 31 µM)
further increase of the solubility caused by cyclodextrin ([4]; on addition of cyclodextrin, water 25° C.): 1.5-2 -fold
Amount of dissolved benomyl, % [5, 6]: 0.2%
Amount of dissolved benomyl, % [5, 7]: 0.07%
Amount of dissolved benomyl, % [5, 8]: 0.3%
Amount of dissolved benomyl, % [5, 9]: 0.08%
Amount of dissolved benomyl, % [5, 10]: 0.45%
Amount of dissolved benomyl, % [5, 11]: 0.12%
Amount of dissolved benomyl, % [5, 12]: 0.5%
Amount of dissolved benomyl, % [5, 13]: 0.16%
Amount of dissolved benomyl, % [5, 14]: 0.5%
Amount of dissolved benomyl, % [5, 15]: 0.19%
solubility thermodynamic at 10 min [5, 6]: 2 µg/mL
solubility thermodynamic at 10 min [5, 7]: 3.5 µg/mL
solubility thermodynamic at 20 min [5, 8]: 3 µg/mL
solubility thermodynamic at 20 min [5, 9]: 4 µg/mL
solubility thermodynamic at 40 min [5, 10]: 4.5 µg/mL
solubility thermodynamic at 40 min [5, 11]: 6 µg/mL
solubility thermodynamic at 80 min [5, 12]: 5 µg/mL
solubility thermodynamic at 80 min [5, 13]: 8 µg/mL
solubility thermodynamic at 2 h [5, 14]: 5 µg/mL
solubility thermodynamic at 2 h [5, 15]: 9.5 µg/mL

COC(=O)Nc1nc2ccccc2[nH]1 [methyl-benzimidazole carbamate, 2-carbomethoxyamino-benzimidazole]
solubility in water [1]: still less soluble in water
